Measured values from patent publication US20240217990A1 (Gilead Sciences, Inc., priority 2021, published 2024).

Columns and labels:
TLR7 = molecular target: T1, TLR7 (Homo sapiens, UniProt Q9NYK1); assay: TLR7 human PBMC cell-based assay (antagonist, GS-986 stimulated cytokine release); conditions: human PBMCs; TLR7 agonist GS-986 400 nM, 6 hours; cytokines (IL-6 and IFNα) in supernatant; read-out: TLR-7 EC50
T1 construct: Human peripheral blood mononuclear cells (PBMCs) consist of lymphocytes, monocytes and dendritic cells that express TLR7, TLR8 and TLR9; endogenous in cells; host or cells: cryopreserved human PBMCs from healthy donors
T1 sequence (Q9NYK1 27-1049): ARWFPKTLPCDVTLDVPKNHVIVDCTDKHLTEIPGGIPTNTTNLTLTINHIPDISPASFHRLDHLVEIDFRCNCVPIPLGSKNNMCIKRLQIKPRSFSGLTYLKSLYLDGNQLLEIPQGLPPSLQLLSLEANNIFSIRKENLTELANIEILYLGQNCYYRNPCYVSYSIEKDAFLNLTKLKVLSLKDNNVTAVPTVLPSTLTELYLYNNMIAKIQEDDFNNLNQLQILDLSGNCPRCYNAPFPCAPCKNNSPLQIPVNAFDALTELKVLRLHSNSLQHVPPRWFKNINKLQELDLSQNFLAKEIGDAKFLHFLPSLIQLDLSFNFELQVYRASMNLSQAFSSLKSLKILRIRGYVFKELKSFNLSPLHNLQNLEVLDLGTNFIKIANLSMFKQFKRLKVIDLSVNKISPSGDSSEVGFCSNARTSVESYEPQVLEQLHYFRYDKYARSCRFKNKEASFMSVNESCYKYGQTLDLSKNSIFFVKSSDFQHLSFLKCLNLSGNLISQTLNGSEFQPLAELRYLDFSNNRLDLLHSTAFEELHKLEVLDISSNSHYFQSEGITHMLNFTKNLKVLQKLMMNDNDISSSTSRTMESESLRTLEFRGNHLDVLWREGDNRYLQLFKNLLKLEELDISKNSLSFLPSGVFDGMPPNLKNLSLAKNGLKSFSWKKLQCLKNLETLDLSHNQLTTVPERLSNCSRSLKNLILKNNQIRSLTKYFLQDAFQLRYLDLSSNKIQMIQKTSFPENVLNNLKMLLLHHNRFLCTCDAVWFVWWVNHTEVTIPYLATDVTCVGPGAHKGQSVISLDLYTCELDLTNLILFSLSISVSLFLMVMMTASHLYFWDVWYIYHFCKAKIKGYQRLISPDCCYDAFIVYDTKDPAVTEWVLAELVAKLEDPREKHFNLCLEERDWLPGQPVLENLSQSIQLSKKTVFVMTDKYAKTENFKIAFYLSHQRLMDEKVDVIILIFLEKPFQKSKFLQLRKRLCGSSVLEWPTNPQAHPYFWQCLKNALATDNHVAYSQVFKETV
Outline: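 EC50 derived by sigmoidal fitting of IL-6 and IFNα levels, quantified by electrochemiluminescence in supernatants of human PBMCs given 400 nM GS-986 for 6 h. Cells (100,000/well in RPMI-1640, 10% FBS) had received test antagonist 1 h beforehand, 10 doses in quadruplicate, at 37 °C.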

TLR8 = molecular target: T2, TLR8 (Homo sapiens, UniProt Q9NR97); assay: TLR8 human PBMC cell-based assay (antagonist, Compound A stimulated cytokine release); conditions: human PBMCs; TLR8 agonist Compound A 800 nM, 6 hours; cytokines (TNFa and IL 12p40) in supernatant; read-out: TLR-8 EC50
T2 construct: Human peripheral blood mononuclear cells (PBMCs) consist of lymphocytes, monocytes and dendritic cells that express TLR7, TLR8 and TLR9; endogenous in cells; host or cells: cryopreserved human PBMCs from healthy donors
T2 sequence (Q9NR97 27-1041): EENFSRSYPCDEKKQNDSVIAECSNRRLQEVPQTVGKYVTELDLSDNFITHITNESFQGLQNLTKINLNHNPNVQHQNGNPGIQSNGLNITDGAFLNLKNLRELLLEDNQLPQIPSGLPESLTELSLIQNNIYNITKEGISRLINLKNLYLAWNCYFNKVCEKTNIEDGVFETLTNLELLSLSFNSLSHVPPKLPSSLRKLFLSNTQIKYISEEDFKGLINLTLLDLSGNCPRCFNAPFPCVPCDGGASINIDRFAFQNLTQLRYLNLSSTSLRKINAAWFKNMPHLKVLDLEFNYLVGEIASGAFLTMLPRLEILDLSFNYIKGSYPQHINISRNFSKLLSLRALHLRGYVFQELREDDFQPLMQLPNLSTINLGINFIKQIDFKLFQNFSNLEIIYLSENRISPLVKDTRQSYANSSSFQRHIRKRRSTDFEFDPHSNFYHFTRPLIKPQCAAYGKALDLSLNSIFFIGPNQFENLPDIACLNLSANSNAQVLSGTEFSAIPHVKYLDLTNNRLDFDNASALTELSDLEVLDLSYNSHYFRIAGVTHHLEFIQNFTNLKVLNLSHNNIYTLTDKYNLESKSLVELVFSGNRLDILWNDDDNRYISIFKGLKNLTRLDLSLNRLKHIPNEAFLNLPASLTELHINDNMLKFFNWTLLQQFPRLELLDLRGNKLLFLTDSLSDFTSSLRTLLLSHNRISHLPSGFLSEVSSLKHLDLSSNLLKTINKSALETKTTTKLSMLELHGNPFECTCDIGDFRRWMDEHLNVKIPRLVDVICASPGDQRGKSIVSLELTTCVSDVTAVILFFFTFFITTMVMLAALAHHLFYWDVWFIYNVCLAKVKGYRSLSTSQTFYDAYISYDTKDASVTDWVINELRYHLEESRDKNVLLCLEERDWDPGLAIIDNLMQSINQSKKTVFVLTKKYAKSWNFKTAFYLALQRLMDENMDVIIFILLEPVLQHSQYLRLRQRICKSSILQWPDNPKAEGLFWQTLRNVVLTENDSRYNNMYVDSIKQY
Outline: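 Cryopreserved donor PBMCs (100,000/well, RPMI + 10% FBS) were preincubated 1 h with antagonist (10-point dose response, quadruplicate), then stimulated with Compound A (800 nM final) for 6 h at 37 °C. TNFa and IL-12p40 in supernatants were measured by electrochemiluminescence; sigmoidal fits gave EC50.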

Structure (SMILES)	EC50 (TLR7) [nM]	EC50 (TLR8) [nM]
Cc1c(-c2[nH]c3cc(C(=O)N(C)C4CCNCC4)sc3c2C(C)C)cn2ncnc2c1C [Example 150]	1	2.5
Cc1c(-c2[nH]c3cc(C(=O)N(C)C4CCN(C)CC4)sc3c2C(C)C)cn2ncnc2c1C [Example 151]	0.8	0.6
Cc1cc(-c2[nH]c3cc(C(=O)N4CCN[C@H](C(F)(F)F)C4)sc3c2C(C)C)cn2ncnc12 [Example 152]	90.9	58.9
Cc1cc(-c2[nH]c3cc(C(=O)N(C)[C@@H]4CCCNC4)sc3c2C(C)C)cn2ncnc12 [Example 153]	2.4	6.5
Cc1cc(-c2[nH]c3cc(C4CCNCC4)sc3c2C(C)C)cn2ncnc12 [Example 154, 6-isopropyl-5-(8-methyl-[1,2,4]triazolo[1,5-a]pyridin-6-yl)-2-(piperidin-4-yl)-4H-thieno[3,2-b]pyrrole]	0.6	3.6
Cc1cc(-c2[nH]c3cc(C4CCCNC4)sc3c2C(C)C)cn2ncnc12 (stereo not shown) [Example 155]	4.8	5.7
Cc1cc(-c2[nH]c3cc(C4CC5CCC(C4)N5)sc3c2C(C)C)cn2ncnc12 (stereo not shown) [Example 156]	0.1	8.8
Cc1cc(-c2[nH]c3cc(C4CCC5CNCC5C4)sc3c2C(C)C)cn2ncnc12 (stereo not shown) [Example 157]	0.3	31.7
Cc1cc(-c2[nH]c3cc(C4CC5CNCC5C4)sc3c2C(C)C)cn2ncnc12 (stereo not shown) [Example 158]	0.2	12.9
Cc1cc(-c2[nH]c3cc(C4CCCC5(CNC5)C4)sc3c2C(C)C)cn2ncnc12 (stereo not shown) [Example 159]	1.2	37.5
Cc1cc(-c2[nH]c3cc(C4CCC5(CC4)CNC5)sc3c2C(C)C)cn2ncnc12 [Example 160]	0.4	7.1
Cc1cc(-c2[nH]c3cc(C4CCNC4)sc3c2C(C)C)cn2ncnc12 (stereo not shown) [Example 161]	9.6	12.4
Cc1cc(-c2[nH]c3cc(C4CCC5(CNC5)C4)sc3c2C(C)C)cn2ncnc12 (stereo not shown) [Example 162]	0.6	11.2
Cc1cc(-c2[nH]c3cc(C4CCN(CC(N)=O)CC4)sc3c2C(C)C)cn2ncnc12 [Example 164, 2-[4-[6-isopropyl-5-(8-methyl-[1,2,4]triazolo[1,5-a]pyridin-6-yl)-4H-thieno[3,2-b]pyrrol-2-yl]-1-piperidyl]acetamide]	1.5	2.8
Cc1cc(-c2[nH]c3cc(C4=NC5(CCN(CC(N)=O)CC5)CO4)sc3c2C(C)C)cn2ncnc12 [Example 165]	1.7	116
Cc1cc(-c2[nH]c3cc(-c4nc(C5CCN(CC(N)=O)CC5)no4)sc3c2C(C)C)cn2ncnc12 [Example 166]	5.1	5.1
Cc1cc(-c2[nH]c3cc(C(=O)N(C4CCC4)C4CCN(CC(N)=O)CC4)sc3c2C(C)C)cn2ncnc12 [Example 167]	14	52.7
Cc1cc(-c2[nH]c3cc(-c4nnc(C5CCN(CC(N)=O)CC5)s4)sc3c2C(C)C)cn2ncnc12 [Example 168]	2.7	2.8
CCc1c(-c2cc(C)c3ncnn3c2)[nH]c2cc(-c3nc4ccc(N5CCN(CC(N)=O)CC5)cc4[nH]3)sc12 [Example 169]	146	72

More lines, now with the values ahead:

EC50 (TLR7) [nM]	EC50 (TLR8) [nM]	Structure (SMILES)
1.2	10.5	Cc1cc(-c2[nH]c3cc(-c4ccc5nc(C6[C@H]7CC[C@H](C7)N6CC(N)=O)[nH]c5c4)sc3c2C(C)C)cn2ncnc12 (stereo partly shown) [Example 170]
24.5	14.6	Cc1cc(-c2[nH]c3cc(C4CCCN(CC(N)=O)C4)sc3c2C(C)C)cn2ncnc12 (stereo not shown) [Example 171]
13.5	6	Cc1cc(-c2[nH]c3cc(-c4cnn(C5CCN(CC(N)=O)CC5)c4)sc3c2C(C)C)cn2ncnc12 [Example 172]
8	4.8	Cc1cc(-c2[nH]c3cc(-c4cnc5c(c4)CN(CC(N)=O)CC5)sc3c2C(C)C)cn2ncnc12 [Example 173]
11.4	16.8	Cc1cc(-c2[nH]c3cc(C(=O)N(C)CC4CCN(CC(N)=O)CC4)sc3c2C(C)C)cn2ncnc12 [Example 174]
0.8	4.1	Cc1cc(-c2[nH]c3cc(C(=O)N4CCC5(CCN(CC(N)=O)C5)CC4)sc3c2C(C)C)cn2ncnc12 [Example 175]
6.5	22.2	Cc1cc(-c2[nH]c3cc(C(=O)N4CCC5(CCN(CC(N)=O)CC5)C4)sc3c2C(C)C)cn2ncnc12 [Example 176]
0.2	1	Cc1cc(-c2[nH]c3cc(C4CCC5(CC4)CN(CC(N)=O)C5)sc3c2C(C)C)cn2ncnc12 [Example 177]
1.3	17.4	Cc1cc(-c2[nH]c3cc(C(=O)N(C)C4CCN(CC(N)=O)CC4)sc3c2C(C)C)cn2ncnc12 [Example 178]
12.5	33	Cc1cc(-c2[nH]c3cc(C(=O)N(C)[C@H]4CCN(CC(N)=O)C4)sc3c2C(C)C)cn2ncnc12 [Example 179]
0.7	11.5	Cc1cc(-c2[nH]c3cc(C(=O)N(C)C4CCN(C(=O)CN(C)C)CC4)sc3c2C(C)C)cn2ncnc12 [Example 180]
1	7.7	Cc1cc(-c2[nH]c3cc(C4CCN(C(=O)CN(C)C)CC4)sc3c2C(C)C)cn2ncnc12 [Example 181]
8.8	40.2	Cc1cc(-c2[nH]c3cc(C(=O)N(C)C4CCN(CC#N)CC4)sc3c2C(C)C)cn2ncnc12 [Example 182]
17.5	32.4	Cc1cc(-c2[nH]c3cc(C(=O)N(C)C4CCN(CCC#N)CC4)sc3c2C(C)C)cn2ncnc12 [Example 183]
0.2	2.8	Cc1cc(-c2[nH]c3cc(C4CCN(S(=O)(=O)C5CCNCC5)CC4)sc3c2C(C)C)cn2ncnc12 [Example 184]
0.2	8.7	Cc1cc(-c2[nH]c3cc(C4CCC5(CC4)CN(C(=O)CN(C)C)C5)sc3c2C(C)C)cn2ncnc12 [Example 185]
